“Also recorded” adds a separate entry of the source.
Experiments:
Format in all cases: in vivo, rat
MADB106 cells [1] = test: Pharmacologic modification of autonomic influence on immune system and lung metastasis
Method: 48 β-EP implanted (SC) male Fischer rats and 48 control (C) male Fischer rats were divided into 8 groups, treated with saline, Naloxone (10 mg/kg body weight), Metaproterenol (MP, 0.8 mg/kg body weight), or Methyllycaconitine (MLA, 2.5 mg/kg body weight), respectively. Animals were treated with drugs for 8 days. In the second day of drug injection, animals were inoculated with MADB106 cells (100,000/0.2 ml/rat). 24 hours after tumor cell inoculation, blood was collected by orbital puncture. Plasma was collected, and PBMCs were separated for migration assay and NK cytolytic assay. 7 days after tumor inoculation, blood was taken again by orbital puncture. Plasma was collected, and PBMCs were separated for migration assay and T cell cytolytic assay. After 6 weeks, animals were sacrificed, and brains, spleens and blood were frozen. Lungs were fixed in formalin and processed to H&E staining. […] However, 7 days after tumor inoculation, there isn't a clear pattern of T cell cytolytic activity and macrophage migration activity between groups (FIGS. 30B and 30D).
It was hypothesized that the beneficial effect of BEP neuron transplants on immune function is regulated through autonomic nervous system, and that central BEP modulate peripheral immune function by inhibiting the sympathetic activity and activating the parasympathetic activity. Metaproterenol (MET) is an agonist for β-receptors, which are a class of G protein-coupled receptors that are targets of the catecholamines, especially norepinephrine and epinephrine (Dokur et al. (2004) J Neuroimmunol 5:148-57; Page et al. (2008) J Neuroimmunol 193:113-9). Methyllycaconitine (MLA) is a selective antagonist of α7 nicotine acetylcholine receptor (α7 nAChR; Wu et al. (2011) Clin Cancer Res 17:3533-41). By injecting MET and MLA i.p., the stimulation of sympathetic nerves and inhibition of parasympathetic nerves was mimicked. Naloxone, an opiate receptor antagonist, was used to test whether BEP neuronal effects is acted via opiodergic receptor (Boyadjieva et al. (2006) Alcohol Clin Exp Res 30:1761-7). Forty-eight BEP neuron-transplanted Fischer rats and 48 control rats were divided into 8 groups and treated with saline, naloxone (10 mg/kg body weight), MET (0.8 mg/kg body weight), or MLA (2.5 mg/kg body weight) for 8 days (the doses used for these drugs are recognized as effective biological doses). A day after the first injection of these agents, animals were inoculated with MADB106 cells (100,000/0.2 mL/rat). Twenty-four hours after tumor cell inoculation, blood was collected by orbital puncture. Plasma was collected, and peripheral blood mononuclear cells (PBMC) were separated for migration assay and NK cytolytic assay. These animals continued receiving the blocker treatments for 7 days. After 4 weeks they were sacrificed, their lungs were fixed in formalin and processed to H&E staining for determination of cancer pathology. Brain tissues were processed for verification of the site and viability of BEP cell transplantation.

[2] = Plasma corticosterone after nanosphere implantation; conditions: naloxone 1 mg/kg i.p., 12 hours
Method: 2 weeks later, half of the animals were i.p. injected with naloxone (1 mg/kg body weight), which is aμ-opioid receptor antagonist, specifically blocking the effect of β-EP. 12 hours later, animals were anesthetized with Nembutal, and blood was drawn from jugular vein. Plasma corticosterone level was measured with ELISA.
2 months later, animals were anesthetized, and 1 ml of blood was drawn from jugular vein.

MADB106 cells [3] = test: MADB106 lung metastasis / lung tumor retention; conditions: naloxone 1 mg/kg every 12 hours, 3 times
Method: A method for lung metastasis was adapted using MADB106 breast cancer cells, a NK-sensitive cell line widely used for lung metastasis study. Animals were anesthetized, and 100,000/0.2 ml/rat of MADB106 cells suspended in media were inoculated into jugular vein. After 4˜6 weeks, 70˜80% of inoculated animals developed tumor at the position of lung and/or neck, where the tumor cells were inoculated into the jugular vein.
30 female Fischer rats were implanted with control, cAMP (10 μM) or cAMP (5 μM)+PACAP (5 μM) nanospheres into 3rd ventricle. 2 weeks later, half of the animals were randomly assigned to treatment with Naloxone (1 mg/kg body every 12 hours) for 3 times. After the second injection of Naloxone, animals were anesthetized and inoculated with 100,000/0.2 ml/rat MADB106 cells. 2 months later, animals were sacrificed, and lungs were fixed and sectioned for histology diagnosis.
MADB106 cells, a Fischer 344 rat mammary adenocarcinoma cell line maintained in DMEM containing 10% fetal calf serum, was used. Female Fischer-344 rats were transplanted with BEP cell transplants or control cell transplants at 50 days of age. After about 2 weeks, these PVN cell-transplanted rats were inoculated with MADB106 tumor cells (100,000 cells/0.2 mL/rat) into jugular vein under sodium Nembutal solution (50 mg/kg) anesthesia. […]

[4] = 24 hours after MADB106 inoculation, naloxone 10, MP/MET 0.8, MLA 2.5 mg/kg or saline

Q: For `C=CCN1CC[C@]23c4c5ccc(O)c4O[C@H]2C(=O)CC[C@@]3(O)[C@H]1C5` [naloxone], which “PBMC NK cell activity” value (MADB106 cells [1]; [4]) is on record?
A: Its value is “moderate or strong inhibitory effect”.

Q: What about the macrophage migration activity (MADB106 cells [1]; [4]) of the same molecule?
A: The macrophage migration activity was “moderate or strong inhibitory effect”.

Q: What about the “effect on β-EP elimination of tumor cell lung retention” value (MADB106 cells [1]; β-EP transplanted Fischer rats, naloxone 10, MP/MET 0.8, MLA 2.5 mg/kg for 8 days) of the same molecule?
A: The value was “stopped the effect of β-EP; also recorded: prevented, at various degrees”.

Q: And the “effect on nanosphere-lowered plasma corticosterone” value [2]?
A: Its value is “blocked the effect of nanospheres”.

Q: What about the “effect on nanosphere-reduced lung tumor retention” value (MADB106 cells [3]) of the same molecule?
A: The value was “reversed the effect of nanosphere”.
